{"source": "patent US20060019907A1", "about": "“Guggulsterone: an inhibitor of nuclear factor - kappaB and IkappaBalpha kinase activation and uses thereof” (Research Development Foundation, priority 2004, published 2006)", "key": {"NF-κB [1]": {"test_system": "NF-κB", "assay": "NF-κB activation by EMSA in H1299 cells", "format": "cell-based, human", "procedure": "NF-κB Activation: To determine NF-κB activation, EMSA was carried out as previously described (Chaturvedi et al., 2000). Briefly, nuclear extracts prepared from cells (2×10^6/ml) treated with TNF were incubated with ^32P-end-labeled 45-mer double-stranded NF-κB oligonucleotide (8 μg of protein with […] of DNA) from the human immunodeficiency virus long terminal repeat, 5′-[…] GGCGTGG-3′ (SEQ ID NO:1) (boldface indicates NF-κB binding sites), for 15 min at 37° C. The DNA-protein complex formed was separated from free oligonucleotide on 6.6% native polyacrylamide gels. A double-stranded mutated oligonucleotide, 5′-[…]-3′ (SEQ ID NO:2), was used to examine the specificity of binding of NF-κB to the DNA. The specificity of binding was also examined by competition with the unlabeled oligonucleotide. For supershift assays, nuclear extracts prepared from TNF-treated cells were incubated with antibodies against either the p50 or the p65 subunit of NF-κB for 30 min at room temperature before the complex was analyzed by EMSA. The dried gels were visualized, and radioactive bands were quantitated using a PHOSPHORIMAGER™ (Molecular Dynamics, Sunnyvale, Calif.) using IMAGEQUANT™ software."}, "[2]": {"test_system": "COX-2, MMP-9, VEGF, cyclin D1, c-myc, cIAP1, xIAP, Bfl-1, BCL-2, TRAF1, cFLIP, survivin", "assay": "TNF-induced expression of NF-κB regulated gene products, Western blot", "format": "cell-based, human", "details": "H1299, 50 μM, 0.1 nM TNF", "procedure": "Western Blot Analysis: To determine the effect of guggulsterone on TNF-dependent IκBα phosphorylation, IκBα degradation, p65 translocation and p65 phosphorylation, cytoplasmic extracts were prepared as previously described (Majumdar et al., 2001) from H1299 (2×10^6/ml) pretreated with 50 μM guggulsterone for 4 h and then exposed to 0.1 nM TNF for various times. Thirty micrograms of cytoplasmic protein was resolved on 10% SDS-PAGE gel, transferred to a nitrocellulose membrane, blocked with 5% non-fat milk, and probed with specific antibody against IκBα, posphorylated IκBα, p65 and phosphorylated p65. To determine the expression of cyclin D1, COX-2, MMP-9, clAP-1, xlAP, TRAF1, Bcl-2, Bfl-1, cFLIP, and survivin, whole-cell extracts were prepared from treated cells (2×10^6 cells in 2 ml medium), 30-50 μg protein was resolved on SDS-PAGE gel and probed by Western blot with specific antibodies as per manufacturer's recommended protocol. The blots were washed, exposed to HRP-conjugated secondary antibodies for 1 hour, and finally detected by ECL reagent (Amersham Pharmacia Biotech.). The bands were quantitated using a Personal Densitometer Scan v1.30 using IMAGEQUANT™ software version 3.3 (Molecular Dynamics)."}, "RAW 264.7 cells": {"test_system": "RAW 264.7 cells", "assay": "Osteoclast differentiation assay, RANKL-induced", "format": "cell-based, mouse", "details": "RANKL 5 nM", "procedure": "(§1) Osteoclast differentiation assay: […] cells were cultured in 24-well dishes at a density of 1×10^4 cells per well and were allowed to adhere overnight. Medium was then replaced and the cells were treated with 5 nM (˜100 ng/ml) RANKL. At different days, cultures were stained for TRAP expression using an acid phosphatase kit, and the total number of TRAP-positive multinucleated osteoclasts (>3 nuclei) per well were counted.\nas §1, with “assay.” for “assay:”, “(100” for “(˜100”, “day 5,” for “different days,”, “expression as described (Shevde et al., 2000)” for “expression”, “(3” for “(>3”"}, "NF-κB [3]": {"test_system": "NF-κB", "assay": "RANKL-induced NF-κB activation by EMSA in RAW 264.7 cells", "format": "cell-based, mouse"}, "IKK": {"test_system": "IKK", "assay": "RANKL-induced IKK activity, IKK assay", "format": "cell-based, mouse", "details": "RAW 264.7"}, "JNK": {"test_system": "JNK", "assay": "JNK kinase assay", "format": "cell-based, human", "details": "U937; 10 μM", "procedure": "JNK kinase assay. To determine the effect of guggulsterone on the kinase activity of JNK, JNK complex from whole-cell extracts was precipitated with antibody against JNK1, followed by treatment with protein A/G-Sepharose beads (Pierce, Rockford, Ill.). After 2 h of incubation, the beads were washed with lysis buffer and then assayed in kinase assay mixture containing 50 mM HEPES (pH 7.4), 20 mM MgCl2, 2 mM dithiothreitol, 20 μCi of [γ-^32P]ATP, 10 μM unlabeled ATP, and 2 μg of substrate GST-c-Jun (1-79). The immunocomplex was incubated at 30° C. for 30 min and then boiled with SDS sample buffer for 5 min. Finally, the protein was resolved on 10% SDS-PAGE, the gel was dried, and the radioactive bands were visualized using the PhosphorImager. To determine the total amount of JNK1 in each sample, whole-cell extracts were subjected to Western blot analysis using anti-JNK1 antibody."}, "[4]": {"test_system": "MKK4 mutants and wild type cells", "assay": "Cytotoxicity (MTT uptake) in MKK4 mutants and wild type cells", "format": "cell-based", "details": "72 h", "procedure": "Cytotoxicity assay. The cytotoxic effects of guggulsterone was determined by the MTT uptake method. Briefly, 5000 cells were incubated with guggulsterone in triplicate in a 96-well plate at 37° C. MTT solution was then added to each well. After a 2-h incubation at 37° C., extraction buffer (20% SDS, 50% dimethylformamide) was added, the cells were incubated overnight at 37° C., and the OD was then measured at 570 nm using a 96-well multiscanner (Dynex Technologies, MRX Revelation, Chantilly, Va.)."}, "[5]": {"details": "H1299, 4 h pre-incubation, 0.1 nM TNF 30 min"}}, "data": [{"compound": "CC=C1C(=O)C[C@H]2[C@@H]3CCC4=CC(=O)CC[C@]4(C)[C@H]3CC[C@]12C", "note": "[guggulsterone, 4,17(20)-pregnadiene-3,16-dione]", "values": [{"measurement": "minimum time required for complete inhibition of NF-κB activation", "setting": "NF-κB [1]; H1299, 50 μM guggulsterone, 0.1 nM TNF 30 min", "result": 4, "unit": "h"}, {"measurement": "TNF-mediated NF-κB activation, dose dependence", "setting": "NF-κB [1]; [5]", "result": "inhibited TNF-mediated NF-κB activation in a dose-dependent manner"}, {"measurement": "concentration of maximum inhibition of TNF-mediated NF-κB activation", "setting": "NF-κB [1]; [5]", "result": 50, "unit": "µM"}, {"measurement": "NF-κB activation induced by TNF, IL-1β, PMA, H2O2, cigarette smoke and okadaic acid (EMSA)", "setting": "NF-κB [1]; H1299 cells, 50 μM guggulsterone pre-incubated 4 h", "result": "suppressed the NF-κB activation induced by all these agents"}, {"measurement": "NF-κB activation by guggulsterone by itself", "setting": "NF-κB [1]; H1299 nuclear extracts, up to 50 μM", "result": "by itself did not activate NF-κB"}, {"measurement": "TNF-induced COX-2, MMP-9 and VEGF expression", "setting": "[2]; 4 h", "result": "abolished the TNF-induced expression of these gene products"}, {"measurement": "TNF-induced cyclin D1 and c-myc expression", "setting": "[2]; 4 hours", "result": "abolished the expression of these gene products"}, {"measurement": "TNF-induced expression of cIAP1, xIAP, Bfl-1, BCL-2, TRAF1, cFLIP and survivin", "setting": "[2]; 4 hours", "result": "this expression was inhibited"}, {"measurement": "number of RANKL-induced osteoclasts", "setting": "RAW 264.7 cells; 5 days, TRAP", "result": "the number of osteoclasts decreased with increasing concentration of GS"}, {"measurement": "RANKL-induced osteoclastogenesis, GS added 24 h after RANKL", "setting": "RAW 264.7 cells; GS 5 μM, 5 days", "result": "inhibited osteoclastogenesis even when the cells were exposed 24 h after the RANKL treatment"}, {"measurement": "RANKL-induced osteoclastogenesis, GS added 3 days after RANKL", "setting": "RAW 264.7 cells; GS 5 μM, 5 days", "result": "the inhibitory effect decreased significantly"}, {"measurement": "RANKL-induced osteoclastogenesis (Example 1)", "setting": "RAW 264.7 cells; guggulsterone 5 μM, TRAP staining", "result": "inhibits RANKL-induced NF-κB activation and osteoclastogenesis"}, {"measurement": "concentration of complete inhibition of RANKL-induced NF-κB activation", "setting": "NF-κB [3]; RAW 264.7, 10 nM RANKL", "result": 50, "unit": "µM"}, {"measurement": "inhibition of RANKL-induced NF-κB, dose dependence", "setting": "NF-κB [3]; RAW 264.7, 10 nM RANKL", "result": "increased with dose"}, {"measurement": "RANKL-induced NF-κB activation (EMSA)", "setting": "NF-κB [3]; RAW 264.7, 50 μM, 10 nM RANKL", "result": "completely abrogated the RANKL-induced NF-κB activation"}, {"measurement": "RANKL-induced NF-κB activation (Example 1)", "setting": "NF-κB [3]; osteoclast precursor cells", "result": "inhibits RANKL-induced NF-κB activation"}, {"measurement": "RANKL-induced IKK activity (phosphorylation of GST-IκBα)", "setting": "IKK; 50 μM, 4 h pre-incubation, 10 nM RANKL", "result": "could not phosphorylate GST-IκBα upon RANKL treatment"}, {"measurement": "expression of IKK-α and IKK-β", "setting": "IKK; Western blot", "result": "did not alter the expression of IKK-α and IKK-β"}, {"measurement": "JNK activation", "setting": "JNK", "result": "activation of JNK"}, {"measurement": "guggulsterone induced cytotoxicity, dependence on MKK4", "setting": "[4]", "result": "MKK4 is required for guggulsterone induced cytotoxicity"}]}]}
